Results on 25 compounds are retold here after patent US20220073536A1 (Rigel Pharmaceuticals, Inc., priority 2003, published 2022).

Where a name gives a salt, the structure may show the parent alone. Some results are limits rather than exact numbers.

Assay [1] has as its system cultured human mast cells (CHMC). Kind of assay: CHMC low cell density IgE activation: tryptase assay. In kind it is cell-based. To be noted: IgE activation. The method in brief:
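CHMC at 1000–1500 cells/well were preincubated 1 hr at 37° C., stimulated with anti-IgE for 30 minutes at 37° C., then pelleted. Supernatant tryptase was measured with a fluorogenic substrate after 30 min at room temperature, against un-stimulated control wells.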

Assay [2] has the same test system. Kind of assay: CHMC low cell density ionomycin activation: tryptase assay. The assay is classed as cell-based. As to conditions: read-out: LD Tryptase, CHMC, Iono, 3 pt.
[3] abbreviates: Homo sapiens, Mast cell, low cell density CHMC, tryptase, 3 pt, read-out: LD Tryptase, CHMC, IgE, 3 pt.
Setting [4] is: Homo sapiens, Mast cell, low cell density CHMC, tryptase, 3 pt.
[5] abbreviates: low cell density CHMC, tryptase release, 3 point, read-out: LD Tryptase, CHMC, IgE, 3 pt.
[6] abbreviates: low cell density CHMC, tryptase release, 3 point.
Where [7] appears, read: Homo sapiens, Mast cell, low cell density, 3 pt, read-out: LD Tryptase, CHMC, IgE, 3 pt.
The mark [8] stands for this setting: Homo sapiens, Mast cell, low cell density, 8 pt, read-out: LD Tryptase, CHMC, IgE, 8 pt.
[9] abbreviates: Homo sapiens, Mast cell, low cell density, 3 pt.
Where [10] appears, read: Homo sapiens, Mast cell, low cell density CHMC, tryptase readout, 3 pt, read-out: LD Tryptase, CHMC, IgE, 3 pt.
The mark [11] stands for this setting: Homo sapiens, Mast cell, low cell density CHMC, tryptase readout, 8 pt, read-out: LD Tryptase, CHMC, IgE, 8 pt.
[12] abbreviates: Homo sapiens, Mast cell, low cell density CHMC, tryptase readout, 3 pt.
Where [13] appears, read: low cell density CHMC, tryptase, 3 pt, read-out: LD Tryptase, CHMC, IgE, 3 pt.
The mark [14] stands for this setting: low cell density CHMC, tryptase, 3 pt.
The mark [15] stands for this setting: Homo sapiens, Mast cell, low cell density CHMC, tryptase release, 3 pt, read-out: LD Tryptase, CHMC, IgE, 3 pt.
The mark [16] stands for this setting: Homo sapiens, Mast cell, low cell density CHMC, tryptase release, 8 pt, read-out: LD Tryptase, CHMC, IgE, 8 pt.
The mark [17] stands for this setting: Homo sapiens, Mast cell, low cell density CHMC, tryptase release, 3 pt.

In the case of `CN1CCN(c2ccc(Nc3ncc(F)c(NC4CCCC4)n3)cc2)CC1` [Compound 1157, N4-Cyclopentyl-5-fluoro-N2-[4-(4-methylpiperazino)phenyl]-2,4-pyrimidinediamine], the IC50 in assay [1] (setting [3]) is less than 10 µM; in assay [2] (setting [4]), greater than 10 µM.
For `COc1cc(Nc2ncc(F)c(N(C)c3ccc4c(c3)OCCO4)n2)cc(OC)c1` [Compound 386], the IC50 was less than 10 µM in assay [1] (setting [3]); less than 10 µM in assay [1] (Homo sapiens, Mast cell, low cell density CHMC, tryptase, 8 pt, read-out: LD Tryptase, CHMC, IgE, 8 pt); greater than 10 µM in assay [2] (setting [4]).
For `CNC(=O)COc1c(C)cc(Nc2ncc(F)c(N(C)c3ccc4c(c3)OC(F)(F)C(F)(F)O4)n2)cc1C` [Compound 636, N2-[3,5-Dimethyl-4-(N-methylamino)carbonylmethyleneoxyphenyl]-5-fluoro-N4-methyl-N4-[3,4-(tetrafluoroethylenedioxy)phenyl]-2,4-pyrimidinediamine], the IC50 is less than 10 µM in assay [1] (setting [5]); less than 10 µM in assay [1] (low cell density CHMC, tryptase release, 8 point, read-out: LD Tryptase, CHMC, IgE, 8 pt); less than 10 µM in assay [2] (setting [6]).
Turning to `CN(c1nc(Nc2ccc(N3CCOCC3)cc2)ncc1F)C1CCC1` [Compound 1139, N4-Cyclobutyl-5-fluoro-N4-methyl-N2-(4-morpholinophenyl)-2,4-pyrimidinediamine], the IC50 was less than 10 µM in assay [1] (setting [3]) and greater than 10 µM in assay [2] (setting [4]).
The matching figures for `CN(c1ccc2c(c1)OCCO2)c1nc(Cl)ncc1F` [Compound 390]: greater than 10 µM and greater than 10 µM.
Take `Cc1ccc(Nc2nc(Nc3cc(C)cc(C)c3)ncc2F)nc1` [Compound 509]: the IC50 was less than 10 µM in assay [1] (setting [7]), less than 10 µM in assay [1] (setting [8]) and greater than 10 µM in assay [2] (setting [9]).
“2-Chloro-N4-[3-chloro-4- (N-methylamino)carbonylmethyleneoxyphenyl]-5-fluoro-N4-methyl-4-pyrimidineamine [Compound 661]”: the IC50 in assay [1] (setting [5]) and in assay [2] (setting [6]) was greater than 10 µM in each case.
In the case of `CN(c1ccc2c(c1)NC(=O)C(C)(C)O2)c1nc(Nc2cccc(-c3ncco3)c2)ncc1F` [Compound 1019, N4-(2,2-Dimethyl-3-oxo-4H-benz[1,4]oxazin-6-yl)-5-fluoro-N4-methyl-N2-[3-(oxazol-2-yl)phenyl]-2,4-pyrimidinediamine], the IC50 in assay [1] (setting [10]) is less than 10 µM; in assay [1] (setting [11]), less than 10 µM; in assay [2] (setting [12]), greater than 10 µM.
With `CNC(=O)COc1c(C)cc(Nc2ncc(F)c(N(C)c3ccc(OC)c(Cl)c3)n2)cc1C` [Compound 579, N4-(3-Chloro-4-methoxyphenyl)-N2-[3,5-dimethyl-4-(N-methylamino)carbonylmethyleneoxyphenyl]-5-fluoro-N4-methyl-2,4-pyrimidinediamine], the IC50 in assay [1] (setting [5]) is less than 10 µM; in assay [2] (setting [6]), greater than 10 µM.
On to `C[C@@H]1Oc2ccc(Nc3nc(Nc4ccc(-c5cnco5)cc4)ncc3F)cc2NC1=O` [Compound 225], for which the IC50 in assay [1] (low cell density CHMC, tryptase release, 3 pt, read-out: LD Tryptase, CHMC, IgE, 3 pt) was less than 10 µM; in assay [1] (low cell density CHMC, tryptase release, 8 pt, read-out: LD Tryptase, CHMC, IgE, 8 pt), less than 10 µM; in assay [2] (low cell density CHMC, tryptase release, 3 pt), greater than 10 µM.
As for `CCOC(=O)N1CCN(c2ccc(Nc3ncc(F)c(N[C@H]4CCN(Cc5ccccc5)C4)n3)cc2)CC1` [Compound 1183, (S)-N4-(1-Benzylpyrrolidin-3-yl)-N2-[4-(4-ethoxycarbonylpiperazino)phenyl]-5-fluoro-2,4-pyrimidinediamine], the IC50 in assay [1] (setting [3]) was less than 10 µM; in assay [2] (setting [4]), greater than 10 µM.
For “N4- (2,2-Difluoro-3-oxo-4H-benz[1,4]oxazin-6-yl)-5-fluoro-N2-[4-[N- (N-methylamino)carbonylmethylene]aminocarbonylphenyl]-2,4-pyrimidinediamine [Compound 1297]”, the IC50 in assay [1] (setting [13]) was less than 10 µM; in assay [2] (setting [14]) it was greater than 10 µM.
Take `Fc1cnc(Nc2ccc3cc[nH]c3c2)nc1Nc1ccc(Cl)c(C(F)(F)F)c1` [Compound 629, N4-(4-Chloro-3-trifluoromethylphenyl)-5-fluoro-N2-(indol-6-yl)-2,4-pyrimidinediamine]: the IC50 in assay [1] (Homo sapiens, Mast cell, low cell density CHMC, tryptase release, 3 point, read-out: LD Tryptase, CHMC, IgE, 3 pt) was less than 10 µM; in assay [1] (Homo sapiens, Mast cell, low cell density CHMC, tryptase release, 8 point, read-out: LD Tryptase, CHMC, IgE, 8 pt), less than 10 µM; in assay [2] (Homo sapiens, Mast cell, low cell density CHMC, tryptase release, 3 point) it was greater than 10 µM.
With `CNC(=O)COc1cccc(Nc2ncc(F)c(N(C)c3ccc4c(c3)NC(=O)C(C)(C)O4)n2)c1` [Compound 1022, N4-(2,2-Dimethyl-3-oxo-4H-benz[1,4]oxazin-6-yl)-5-fluoro-N4-methyl-N2-[3-(N-methylamino)carbonylmethyleneoxyphenyl]-2,4-pyrimidinediamine], the IC50 in assay [1] (low cell density CHMC, tryptase readout, 3 pt, read-out: LD Tryptase, CHMC, IgE, 3 pt) was less than 10 µM; in assay [1] (low cell density CHMC, tryptase readout, 8 pt, read-out: LD Tryptase, CHMC, IgE, 8 pt), less than 10 µM; in assay [2] (low cell density CHMC, tryptase readout, 3 pt) it was greater than 10 µM.
Regarding `COc1cc(OC)cc(N(C)c2nc(Nc3ccc(OC)c(Cl)c3)ncc2F)c1` [Compound 404, N2-(3-Chloro-4-methoxyphenyl)-N4-(3,5-dimethoxyphenyl)-5-fluoro-N4-methyl-2,4-pyrimidinediamine], the IC50 in assay [1] (setting [3]) and in assay [2] (setting [4]) was greater than 10 µM in each case.
For the compound `CN1CCN(c2ccc(Nc3ncc(F)c(Nc4ccc5c(n4)NCCO5)n3)cc2)CC1` [Compound 1141, N4-(3,4-Dihydro-2H,4H-5-pyrid[1,4]oxazin-6-yl)-5-fluoro-N2-[4-(4-methylpiperazino)phenyl]-2,4-pyrimidinediamine], the IC50 in assay [1] (setting [13]) was less than 10 µM; in assay [1] (low cell density CHMC, tryptase, 8 pt, read-out: LD Tryptase, CHMC, IgE, 8 pt), less than 10 µM; in assay [2] (setting [14]), greater than 10 µM.
For the compound `O=C1COc2cc(Nc3nc(Nc4ccc(-c5cnco5)cc4)ncc3F)ccc2N1` [Compound 226], the IC50 in assay [1] (setting [15]) was less than 10 µM; in assay [1] (setting [16]), less than 10 µM; in assay [2] (setting [17]), greater than 10 µM.
For `CC1(C)Oc2ccc(Nc3nc(Nc4ccc5[nH]c(C(F)(F)F)nc5c4)ncc3F)cc2NC1=O` [Compound 802, N4-(2,2-Dimethyl-3-oxo-4H-benz[1,4]oxazin-6-yl)-5-fluoro-N2-(2-trifluoromethyl-1H-benzimidazol-5-yl)-2,4-pyrimidinediamine], the figures for the IC50 in assay [1] (setting [15]), in assay [1] (setting [16]) and in assay [2] (setting [17]) were less than 10 µM, less than 10 µM and greater than 10 µM, respectively.
Take `COc1cc(Nc2ncc(F)c(Nc3ccc(Cl)cn3)n2)cc(OC)c1` [Compound 510]: the IC50 is less than 10 µM in assay [1] (setting [7]), less than 10 µM in assay [1] (setting [8]) and greater than 10 µM in assay [2] (setting [9]).
With `COc1ccc(N(C)c2nc(Nc3cc(C)cc(C)c3)ncc2F)cc1OC` [Compound 433], the IC50 in assay [1] (setting [3]) is less than 10 µM; in assay [2] (setting [4]) it was greater than 10 µM.
On to `COc1cc(C(N)=O)c(Nc2ncc(F)c(NC3CCCCC3)n2)cc1OCc1ccccc1` [Compound 1175, N2-(2-Aminocarbonyl-5-benzoxy-4-methoxyphenyl)-N4-cyclohexyl-5-fluoro-2,4-pyrimidinediamine], for which the IC50 in assay [1] (setting [3]) is less than 10 µM; in assay [2] (setting [4]) it was greater than 10 µM.
As for `CC(=O)N1CCN(c2ccc(Nc3ncc(F)c(Nc4cc(C(C)(C)C)[nH]n4)n3)cc2)CC1` [Compound 1102], the IC50 in assay [1] (setting [10]) was less than 10 µM; in assay [1] (setting [11]), less than 10 µM; in assay [2] (setting [12]), greater than 10 µM.
For `COc1ccc(Nc2ncc(F)c(N(C)c3ccc4c(c3)N(C)C(=O)C(C)(C)O4)n2)cc1Cl` [Compound 392], the IC50 in assay [1] (setting [3]) and in assay [2] (setting [4]) was less than 10 µM each time.
In the case of `CNC(=O)COc1cccc(Nc2ncc(F)c(Nc3ccc4c(n3)NC(=O)C(C)(C)O4)n2)c1` [Compound 992, N4-(2,2-Dimethyl-3-oxo-4H-5-pyrid[1,4]oxazin-6-yl)-5-fluoro-N2-[3-(N-methylamino)carbonylmethyleneoxyphenyl]-2,4-pyrimidinediamine (+)-Camphorsulfonic Acid Salt], the IC50 in assay [2] (low cell density, 3 pt) was greater than 10 µM.
Turning to `CCn1c(C)nc2cc(Nc3ncc(F)c(Nc4ccc5c(c4)NC(=O)C(C)(C)O5)n3)ccc21` [Compound 934], the IC50 in assay [1] (setting [7]) was less than 10 µM.
